Experimental data: patent US20060148774A1, “Hypoglycemic agent” (Riken, priority 2001, published 2006)

How the values were obtained:
Body weight = format: in vivo; conditions: db/db mice, 0.3% in the feed, 19-week old
c57BL db/db male mice [1] = conditions: 19-week old
Protocol: (§1) 6-Week old c57BL db/db male mice, as being a Type-2 diabetes model animal having homozygote diabetes pathogenic gene (db), were divided in three groups each consisting of 10 animals. A group of healthy c57BL db/+m male mice (10 animals) having heterozygote db gene was used as a control group. The animals were housed in plastic cages for mice at five animals per cage. The animals were fed under feeding conditions at a temperature of 24±1° C. and a relative humidity of 55±5%, where light and darkness were controlled to change every 12 hours, and each cage and bedding materials were exchanged twice a week. The animals were allowed to water ad libitum.
(§2) Feed CMF for mouse (Oriental Yeast Co.) was used as a basic feed, and 0.1% or 0.3% of 5-campesten-3-one was mixed to the feed to prepare an experimental feed. The resulting feeds were kept at 4° C. before the start of feeding.
(§3) The animals were autopsied, and the brain, lungs, heart, liver, spleen, pancreas, kidneys, adrenals, and testis were macroscopically examined and weighed.

c57BL db/db male mice [2] = assay: Urinary sugar by urinary test paper; format: in vivo; conditions: for urinary sugar, Positive ratio: + or higher positive
c57BL db/db male mice [3] = conditions: mouse, in vivo
Protocol: as §1, §2, §3

c57BL db/db male mice [4] = assay: Oral glucose tolerance test (OGTT); format: in vivo; conditions: db/db mice 19-week old; for OGTT blood sugar level: glucose 2 g/kg oral
Protocol: The animals were allowed to water ad libitum.
For oral glucose tolerance test, the animals, starved for 16 hours from the night before of the end of the feeding (19-week old), were orally administered with glucose (2 g/kg), and the bloods were collected from orbital venous plexus at time 0 and after 60 and 120 minutes by using a capillary glass to measure blood sugar levels.

c57BL db/db male mice [5] = assay: Change in blood sugar level in Type-2 diabetes model mice fed 5-campesten-3-one in the feed; format: in vivo; conditions: for blood sugar level relative to control group (second group): 0.1% in the feed
[6] = 0.1% in the feed, week 7 (period 0 week)
[7] = 0.1% in the feed, week 9 (period 2 weeks)
[8] = 0.1% in the feed, week 11 (period 4 weeks)
[9] = 0.1% in the feed, week 13 (period 6 weeks)
[10] = 0.1% in the feed, week 15 (period 8 weeks)
[11] = 0.1% in the feed, week 17 (period 10 weeks)
[12] = 0.3% in the feed, 7- to 17-week old
[13] = 0.3% in the feed, week 7 (period 0 week)
[14] = 0.3% in the feed, week 9 (period 2 weeks)
[15] = 0.3% in the feed, week 11 (period 4 weeks)
[16] = 0.3% in the feed, week 13 (period 6 weeks)
[17] = 0.3% in the feed, week 15 (period 8 weeks)
[18] = 0.3% in the feed, week 17 (period 10 weeks)

## CC(C)[C@H](C)CC[C@@H](C)[C@H]1CC[C@H]2[C@@H]3CC=C4CC(=O)CC[C@]4(C)[C@H]3CC[C@]12C [5-campesten-3-one]
Body weight
  body weight compared to control group (second group): significantly higher
c57BL db/db male mice [1]; 0.1% and 0.3% in the feed, some mice with fat liver, as in the control db/db group
  autopsy of brain, heart, lungs, livers, pancreas, spleen, kidneys, adrenals: no particular abnormality was observed
c57BL db/db male mice [1]; 0.3% in the feed, untreated diabetic mice 50 to 60%
  weight of the testis (absolute weight) as % of that of the healthy mice (first group): 85%
c57BL db/db male mice [2]; 0.1% in the feed
  onset of positive urinary sugar: a delay in giving a positive result was observed
c57BL db/db male mice [2]; [6]
  urinary sugar, number of mice graded +: 1
  urinary sugar, number of mice graded ++: 0
  urinary sugar, number of mice graded +++: 4
  urinary sugar, number of mice graded ±: 1
  urinary sugar, number of mice graded −: 2
  urinary sugar, Positive ratio: 63%
c57BL db/db male mice [2]; [7]
  urinary sugar, number of mice graded +: 0
  urinary sugar, number of mice graded ++: 2
  urinary sugar, number of mice graded +++: 2
  urinary sugar, number of mice graded ±: 2
  urinary sugar, number of mice graded −: 1
  urinary sugar, Positive ratio: 57%
c57BL db/db male mice [2]; [8]
  urinary sugar, number of mice graded +: 1
  urinary sugar, number of mice graded ++: 0
  urinary sugar, number of mice graded +++: 7
  urinary sugar, number of mice graded ±: 0
  urinary sugar, number of mice graded −: 1
  urinary sugar, Positive ratio: 89%
c57BL db/db male mice [2]; [9]
  urinary sugar, number of mice graded +: 0
  urinary sugar, number of mice graded ++: 0
  urinary sugar, number of mice graded +++: 9
  urinary sugar, number of mice graded ±: 0
  urinary sugar, number of mice graded −: 0
  urinary sugar, Positive ratio: 100%
c57BL db/db male mice [2]; [10]
  urinary sugar, number of mice graded +: 0
  urinary sugar, number of mice graded ++: 1
  urinary sugar, number of mice graded +++: 8
  urinary sugar, number of mice graded ±: 0
  urinary sugar, number of mice graded −: 0
  urinary sugar, Positive ratio: 100%
c57BL db/db male mice [2]; [11]
  urinary sugar, number of mice graded +: 1
  urinary sugar, number of mice graded ++: 0
  urinary sugar, number of mice graded +++: 8
  urinary sugar, number of mice graded ±: 0
  urinary sugar, number of mice graded −: 0
  urinary sugar, Positive ratio: 100%
c57BL db/db male mice [2]; [12]
  positive ratio of urinary sugar, range over the test period: 14 to 70%
c57BL db/db male mice [2]; 0.3% in the feed, almost a half of the mice + (150 mg/dl) or ++ (500 mg/dl)
  positive degrees of urinary sugar compared to control group (second group): lower than the results of the control group
c57BL db/db male mice [2]; [13]
  urinary sugar, number of mice graded +: 0
  urinary sugar, number of mice graded ++: 0
  urinary sugar, number of mice graded +++: 1
  urinary sugar, number of mice graded ±: 0
  urinary sugar, number of mice graded −: 6
  urinary sugar, Positive ratio: 14%
c57BL db/db male mice [2]; [14]
  urinary sugar, number of mice graded +: 0
  urinary sugar, number of mice graded ++: 1
  urinary sugar, number of mice graded +++: 0
  urinary sugar, number of mice graded ±: 0
  urinary sugar, number of mice graded −: 4
  urinary sugar, Positive ratio: 20%
c57BL db/db male mice [2]; [15]
  urinary sugar, number of mice graded +: 0
  urinary sugar, number of mice graded ++: 2
  urinary sugar, number of mice graded +++: 3
  urinary sugar, number of mice graded ±: 1
  urinary sugar, number of mice graded −: 2
  urinary sugar, Positive ratio: 63%
c57BL db/db male mice [2]; [16]
  urinary sugar, number of mice graded +: 1
  urinary sugar, number of mice graded ++: 2
  urinary sugar, number of mice graded +++: 2
  urinary sugar, number of mice graded ±: 0
  urinary sugar, number of mice graded −: 5
  urinary sugar, Positive ratio: 50%
c57BL db/db male mice [2]; [17]
  urinary sugar, number of mice graded +: 1
  urinary sugar, number of mice graded ++: 1
  urinary sugar, number of mice graded +++: 2
  urinary sugar, number of mice graded ±: 1
  urinary sugar, number of mice graded −: 4
  urinary sugar, Positive ratio: 44%
c57BL db/db male mice [2]; [18]
  urinary sugar, number of mice graded +: 3
  urinary sugar, number of mice graded ++: 1
  urinary sugar, number of mice graded +++: 3
  urinary sugar, number of mice graded ±: 2
  urinary sugar, number of mice graded −: 1
  urinary sugar, Positive ratio: 70%
c57BL db/db male mice [3]
  general conditions during the experimental period: no abnormal findings such as diarrhea was observed
c57BL db/db male mice [4]; 0.1% in the feed, every measuring point
  OGTT blood sugar levels compared to second group: significantly lower than the levels of the second group at every measuring points
c57BL db/db male mice [4]; 0.1% in the feed, 60 minutes
  OGTT blood sugar level: 703 mg/dL
c57BL db/db male mice [4]; 0.1% in the feed, 120 minutes
  OGTT blood sugar level: 558 mg/dL
c57BL db/db male mice [4]; 0.1% in the feed, time 0
  OGTT blood sugar level: 497 mg/dL
c57BL db/db male mice [4]; 0.3% in the feed, 60 minutes
  OGTT blood sugar level: almost the same 60-munites value as that of the third group
c57BL db/db male mice [4]; 0.3% in the feed, 120 minutes
  OGTT blood sugar level: 440 mg/dL
c57BL db/db male mice [4]; 0.3% in the feed, time 0
  OGTT blood sugar level: 282 mg/dL
c57BL db/db male mice [5]; 9-week old
  blood sugar level relative to control group (second group): increased
c57BL db/db male mice [5]; 11-week old
  blood sugar level relative to control group (second group): decreased
c57BL db/db male mice [5]; 17-week old
  blood sugar level relative to control group (second group): lower level
c57BL db/db male mice [5]; [12]
  change with time in blood sugar level: almost constant level without a significant increase
c57BL db/db male mice [5]; 0.3% in the feed, 7-week old
  blood sugar level, initial value: 270 mg/dL
c57BL db/db male mice [5]; 0.3% in the feed, after 9-week old
  blood sugar level compared to control group (second group): significantly lower values at every measuring times after 9-week old
